Assay results reported in BindingDB's records for PubMed 36074125 (Purdue University, 2022).

Target: T1, N-terminal Xaa-Pro-Lys N-methyltransferase 1 (Homo sapiens, UniProt Q9BV86)
T1 sequence (Q9BV86 whole entry): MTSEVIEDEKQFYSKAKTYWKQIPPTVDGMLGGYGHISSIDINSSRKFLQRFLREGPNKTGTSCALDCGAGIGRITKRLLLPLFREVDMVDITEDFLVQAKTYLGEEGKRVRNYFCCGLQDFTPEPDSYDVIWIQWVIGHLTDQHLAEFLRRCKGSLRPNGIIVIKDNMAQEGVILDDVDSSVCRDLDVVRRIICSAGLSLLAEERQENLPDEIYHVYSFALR
Test: Inhibition of full length NTMT1 (1 to 222 residues) (unknown origin) expressed in Escherichia coli BL21 (DE3) using GPKRIA as substrate preincubated for 10 mins followed by substrate addition measured after 15 mins by microplate reader method

Row | Compound | IC50 [nM]
1 | CC(C)(NC(=O)O[C@@H]1CN2CCC1CC2)c1csc(-c2ccc(Cl)cc2)n1 | 910
2 | CC(C)(NC(=O)O[C@@H]1CN2CCC1CC2)c1csc(-c2ccc(C(F)(F)F)cc2)n1 | 3200
